Data as given in patent US9447108B2 (SZEGEDI TUDOMÁNYEGYETEM, priority 2013, dated 2016).

Key:
[1] = biological target: T1, δ-opioid receptors (Rattus norvegicus, UniProt P33533); assay: Receptor binding assay, [3H]Ile5,6-deltorphin-2 displacement in rat brain membranes
T1 construct: A crude membrane fraction was prepared from Wistar rat brains and spinal cords; from tissue; host or cells: Wistar rat brain (without cerebellum), crude membrane fraction

[2] = biological target: T2, μ-opioid receptors (Rattus norvegicus, UniProt P33535); assay: Receptor binding assay, [3H]DAMGO displacement in rat brain membranes
T2 construct: A crude membrane fraction was prepared from Wistar rat brains and spinal cords; from tissue; host or cells: Wistar rat brain (without cerebellum), crude membrane fraction

[3] = system: rats; assay: Behavioral nociceptive testing, paw-withdrawal test (PWD), heat pain threshold; format: in vivo, rat
Procedure: The paw-withdrawal test (PWD) was used to measure the heat pain threshold after the treatments. A detailed description of this model was published by Hargreaves et al. (Hargreaves, K.; Dubner, R.; Brown, F.; Flores, C.; Joris, J. Pain; 32, 77 1988). Briefly, rats were placed on a glass surface in a plastic chamber and were allowed to acclimatize to their environment for 15-30 min before testing. The baseline hind paw-withdrawal latencies (baseline values at 0 min determined two times) were then obtained. A heat stimulus was directed onto the plantar surface of each hind paw and the intensity of the thermal stimulus was adjusted to derive an average baseline latency of approximately 10 s (cut-off time 20 s). Then the animals were treated subcutaneously with different doses of ligands (0.3-10 mg/kg). The nociceptive threshold was determined at 15-min intervals for 120 min.
Data are presented as means±SEM. The mean of the two sides and the mean of two time points (15-30; 45-60; 75-90 and […]) were evaluated. The results were analyzed using a two-way ANOVA (ANalysis Of VAriances) (factors: treatment and time with repeated measurements). Subsequent analysis was performed using Fisher-LSD test. A p-value less than 0.05 was considered significant. Data were analyzed using […] 7.1. software (Statsoft Inc., Tulsa, Okla.).

[4] = 10 mg/kg s.c., 0 min (baseline)

T1 sequence (P33533 whole entry): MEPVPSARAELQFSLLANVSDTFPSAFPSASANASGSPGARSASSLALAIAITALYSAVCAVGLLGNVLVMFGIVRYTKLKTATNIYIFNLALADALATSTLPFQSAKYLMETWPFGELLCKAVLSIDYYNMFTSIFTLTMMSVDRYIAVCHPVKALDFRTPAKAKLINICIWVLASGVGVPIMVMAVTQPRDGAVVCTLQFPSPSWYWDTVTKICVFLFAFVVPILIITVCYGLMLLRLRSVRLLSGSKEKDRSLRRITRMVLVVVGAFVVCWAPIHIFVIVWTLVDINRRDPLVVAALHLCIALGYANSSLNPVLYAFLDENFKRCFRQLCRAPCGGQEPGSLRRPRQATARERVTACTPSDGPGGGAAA
T2 sequence (P33535 whole entry): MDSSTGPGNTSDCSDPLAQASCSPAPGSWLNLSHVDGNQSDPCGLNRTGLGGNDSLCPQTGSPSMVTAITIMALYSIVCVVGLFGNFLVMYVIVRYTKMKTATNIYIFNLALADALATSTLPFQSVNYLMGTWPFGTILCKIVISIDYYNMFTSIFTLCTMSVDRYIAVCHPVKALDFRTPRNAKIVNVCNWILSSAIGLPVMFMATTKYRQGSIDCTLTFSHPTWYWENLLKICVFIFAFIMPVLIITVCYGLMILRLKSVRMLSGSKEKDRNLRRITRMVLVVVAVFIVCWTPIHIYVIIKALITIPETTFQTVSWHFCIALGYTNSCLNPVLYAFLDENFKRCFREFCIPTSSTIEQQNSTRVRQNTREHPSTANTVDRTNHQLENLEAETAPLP

Row | Structure (SMILES) | Ki [1] [µM] | Ki [2] [nM] | Time course of the antinociceptive effects (paw-withdrawal latency) ([3]; 3 mg/kg s.c., 0 min (baseline)) [s] | Time course of the antinociceptive effects (paw-withdrawal latency) ([3]; 3 mg/kg s.c., 30 min) [s] | Time course of the antinociceptive effects (paw-withdrawal latency) ([3]; 3 mg/kg s.c., 60 min) [s] | Time course of the antinociceptive effects (paw-withdrawal latency) ([3]; 3 mg/kg s.c., 90 min) [s] | Time course of the antinociceptive effects (paw-withdrawal latency) ([3]; 3 mg/kg s.c., 120 min) [s] | Time course of the antinociceptive effects (paw-withdrawal latency) [3, 4] [s] | Time course of the antinociceptive effects (paw-withdrawal latency) ([3]; 10 mg/kg s.c., 30 min) [s] | Time course of the antinociceptive effects (paw-withdrawal latency) ([3]; 10 mg/kg s.c., 60 min) [s] | Time course of the antinociceptive effects (paw-withdrawal latency) ([3]; 10 mg/kg s.c., 90 min) [s] | Time course of the antinociceptive effects (paw-withdrawal latency) ([3]; 10 mg/kg s.c., 120 min) [s] | antinociceptive effect at 3 mg/kg, efficacy compared to morphine ([3]; 3 mg/kg s.c., in words) | duration of antinociceptive effect compared to other drugs ([3]; 3 mg/kg s.c., in words) | antinociception, potency and dose dependence ([3]; s.c., 0.3-10 mg/kg, in words)
1 | COc1ccc2c3c1O[C@H]1[C@@H](O)CC[C@H]4[C@@H](C2)N(C)CC[C@@]341 [Dihydrocodeine] | > 10 | 122 ± 15 | 10.1 | 11.1 | 10.7 | 10.5 | 10.3 | 9.9 | 13.4 | 13.6 | 10.9 | 9.8 |  |  | 
2 | CCOc1ccc2c3c1O[C@H]1[C@@H](O)CC[C@H]4[C@@H](C2)N(C)CC[C@@]341 [Dihydroethylmorphine] |  |  | 10.1 | 11.3 | 10.9 | 10.2 | 9.9 | 10.2 | 11.5 | 12.3 | 12.0 | 10.4 |  |  | 
3 | CC(=O)Oc1ccc2c3c1O[C@H]1[C@@H](OC(C)=O)CC[C@H]4[C@@H](C2)N(C)CC[C@@]341 [Dihydroheroine] |  |  | 10.1 | 17.3 | 15.6 | 12.9 | 10.7 |  |  |  |  |  |  |  | 
4 | CN1CC[C@]23c4c5ccc(O)c4O[C@H]2[C@@H](O)CC[C@H]3[C@H]1C5 [Dihydromorphine] |  |  | 10.2 | 13.1 | 13.9 | 14.1 | 13.3 | 10.1 | 19.4 | 20.6 | 15.3 | 14.1 |  |  | 
5 | [2H][C@@H]1[C@H]([2H])[C@H]2[C@H]3Cc4ccc(O)c5c4[C@@]2(CCN3C)[C@@H](O5)[C@H]1O [Example 1, (5α,6α,7β,8β)-3,6-dihydroxy-4,5-epoxy-17-methyl-(7,8-^2H2)-morphinan] |  |  | 10.1 | 14.1 | 14.9 | 14.9 | 14.1 | 9.8 | 21.3 | 22.1 | 16.8 | 16.1 | more effective than morphine | more prolonged effects compared to other drugs | more potent
